This note sets out measurements from patent EP2311457A1, “Pharmaceutical compositions for treating infections with drug resistant mycobacteria” (priority 2009, dated 2011).

Molecules are shown by their SMILES. Converted amounts (≈) assume the structure as drawn.

In the experiment the test system is Mtb 09457/06 XDR. As to the kind of experiment: Drug susceptibility testing, radiometric MIC determination (BACTEC 460TB). The conditions noted are these: Mycobacterium tuberculosis, read-out: minimal inhibitory concentrations.
In the case of `C(=NNc1ccccn1)c1ccc(OCc2ccccc2)cn1` [PH22-49, 5-benzyloxypyridine-2-aldehyde-2'-pyridylhydrazone], the MIC is 1 mg/L (≈ 3.29 µM).

`Cc1ccc(C=NNc2ccc3ccccc3n2)nc1` [PH22-14, 5-methylpyridine-2-aldehyde-2'-quinolylhydrazone]: the MIC is 0.5 mg/L (≈ 1.91 µM). For the molecule `c1ccc(C(=NNc2nncc3ccccc23)c2ccccn2)cc1` [PH22-22, 2-benzoylpyridine-1'-phthalazinylhydrazone], the MIC was 5 mg/L (≈ 15.4 µM). As for `C(=NNc1nncc2ccccc12)c1ccc(OCc2ccccc2)cn1` [PH22-6, 5-benzyloxypyridine-2-aldehyde-1'-phthalazinylhydrazone], the MIC was 1 mg/L (≈ 2.81 µM). The same measure for `c1ccc(C(=NNc2ccc3ccccc3n2)c2ccccn2)cc1` [PH22-15, 2-benzoylpyridine-2'-quinolylhydrazone]: 0.25 mg/L (≈ 0.771 µM); for `Cc1ccc(C=NNc2nncc3ccccc23)nc1` [PH22-16, 5-methyl-pyridine-2-aldehyde-1'-phthalazinylhydrazone]: below 1 mg/L; for `Clc1ccc(NN=Cc2ccc(OCc3ccccc3)cn2)nn1` [PH22-51, 5-benzyloxypyridine-2-aldehyde-6'-chloro-3'-pyridazinylhydrazone]: 1 mg/L (≈ 2.94 µM).

Take `Cc1cccc(NN=Cc2ccccn2)n1` [PH22-31, pyridine-2-aldehyde-6'-methyl-2'-pyridylhydrazone]: the MIC stood at 1 mg/L (≈ 4.71 µM). On to `C(=NNc1ncnc2ccccc12)c1ccc(OCc2ccccc2)cn1` [PH22-52, 5-benzyloxypyridine-2-aldehyde-4'-quinazolinylhydrazone], for which the MIC was 1 mg/L (≈ 2.81 µM).

As for `CCc1ccc(C=NNc2cc(OC)ncn2)nc1` [PH22-33, 5-ethylpyridine-2-aldehyde-6'-methoxy-4'-pyrimidylhydrazone], the MIC is below 0.125 mg/L.
